Measured values: the NIST ThermoML archive (doi:10.1021/je050092d)

Conditions: for molar entropy: 101.33 kPa, Vacuum adiabatic calorimetry

CCCCCCCCCCCCCCCCCC(=O)OCC(COC(=O)CCCCCCCCCCCCCCCCC)OC(=O)CCCCCCCCCCCCCCCCC [glycerol trioctadecanoate]
Conditions	Normal melting temperature [°C]	Triple point temperature [K]	molar entropy [J/K/mol]
10 K, Crystal	–	–	5.349
20 K, Crystal	–	–	32.09
30 K, Crystal	–	–	74.88
40 K, Crystal	–	–	130.16
50 K, Crystal	–	–	188.99
60 K, Crystal	–	–	251.4
70 K, Crystal	–	–	315.58
80 K, Crystal	–	–	380.66
90 K, Crystal	–	–	443.96
100 K, Crystal	–	–	504.58
110 K, Crystal	–	–	562.52
120 K, Crystal	–	–	618.69
130 K, Crystal	–	–	673.07
140 K, Crystal	–	–	726.56
150 K, Crystal	–	–	778.26
160 K, Crystal	–	–	829.97
170 K, Crystal	–	–	879.89
180 K, Crystal	–	–	929.81
190 K, Crystal	–	–	978.84
200 K, Crystal	–	–	1028.8
210 K, Crystal	–	–	1077.8
220 K, Crystal	–	–	1125.9
230 K, Crystal	–	–	1173.2
240 K, Crystal	–	–	1219.5
250 K, Crystal	–	–	1266.8
260 K, Crystal	–	–	1314
270 K, Crystal	–	–	1361.3
280 K, Crystal	–	–	1408.5
290 K, Crystal	–	–	1456.7
298.15 K, Crystal	–	–	1495.9
300 K, Crystal	–	–	1504.8
310 K, Crystal	–	–	1553.8
320 K, Crystal	–	–	1603.8
330 K, Crystal	–	–	1655.5
Crystal, Adiabatic calorimetry	–	345.94	–
Metastable crystal, Adiabatic calorimetry	54.2	–	–
